Results taken from US20250263396A1, “CRYSTALLINE FORMS OF 3-(5-(2-HYDROXY-2- METHYLPROPOXY)-6-METHYPYRAZIN-2-YL)-1H-INDOLE-7-CARBONITRILE” (NIDO BIOSCIENCES, INC., priority 2024, published 2025).
Where two headings read alike, the source gives them in different places.

Tests used:
[1] = Form change on heating, dehydration or desolvation (TGA, DSC, variable temperature XRPD); format: physicochemical
[2] = Competitive equilibration experiments
Procedure: Relative stability of the anhydrate Forms A, C, H and J was investigated with competitive equilibration experiments.
Relative stability of the anhydrates Forms C, K and L was investigated with competitive equilibration experiments.
Relative stability of the anhydrates Form C and Form P was systematically investigated with competitive equilibration experiments.
About 5 mg of Form C and about 5 mg of Form P were added to 0.25 mL of saturated solutions of selected solvents. Obtained suspensions were stirred at 25° C., 50° C. and 70° C. for 4 days, respectively. Solid parts (wet cakes) were isolated by centrifugation filtration and investigated by XRPD.
About 10 mg of Form C and about 10 mg of Form P were added to 0.5 mL saturated solutions of selected solvents. Obtained suspensions were stirred at 80/C and 90 C, respectively. Solid parts (wet cakes) were be isolated by centrifugation filtration and investigated by XRPD.
About 3 mg of the Form P and 3 mg of the mixture of Form P and Form J were added to 0.2 mL of saturated solutions of selected solvents. Obtained suspensions were stirred at 25° C., 50° C. and 70° C. for 4 days, respectively. Solid parts (wet cakes) were isolated by centrifugation filtration and investigated by XRPD.
About 3 mg of Form P and 3 mg of the physical mixture of Form P and Form R were added to 0.2 mL of saturated solutions of 2-MeTHF. Obtained suspensions were stirred at 25° C., 50° C. and 70° C., respectively. Solid parts (wet cakes) were isolated by centrifugation filtration and investigated by XRPD.
About 1.5 mg of Form P, 1.5 mg of Form X and 1.5 mg Form Y were added to 0.15 mL saturated solution of 2-MeTHF. Obtained suspensions were stirred at 25° C., 50° C. and 70° C., respectively. Solid parts (wet cake) were isolated by centrifugation filtration and investigated by XRPD.

[3] = Equilibration with solvents; format: physicochemical
Procedure: Obtained suspensions were filtered through a 0.45 μm nylon membrane filter by centrifugation at 14,000 rpm. Solid parts (wet cakes) were investigated by XRPD. For samples with different XRPD patterns, additional analysis including DSC, TGA, ^1H-NMR were performed.
(§1) Obtained suspensions were filtered through a 0.45 μm nylon membrane filter by centrifugation at 14,000 rpm.
as §1

[4] = Competitive water activity experiments; details: whole range of water activity (0≤a.w.≤1)
[5] = Form change on heating, dehydration or desolvation (TGA, DSC, variable temperature XRPD); format: physicochemical; details: variable temperature XRPD
Procedure: Relative stability of the anhydrates Form R and Form P was investigated by variable temperature XRPD and competitive equilibration experiments.
Relative stability of the anhydrates Form B, Form X, Form Y and Form C was investigated by variable temperature XRPD. Form B converted to Form X, Form Y and Form C after heating to 150° C., 176° C. and 180° C., respectively.

With `Cc1nc(-c2c[nH]c3c(C#N)cccc23)cnc1OCC(C)(C)O` [Form E, 3-(5-(2-hydroxy-2-methylpropoxy)-6-methylpyrazin-2-yl)-1H-indole-7-carbonitrile] the Form after heating ([1]; heating to 100° C. by TGA and cooled to room temperature) was “converts to physical mixture of Form F and Form G”.

For `Cc1nc(-c2c[nH]c3c(C#N)cccc23)cnc1OCC(C)(C)O` [Form C and Form P, 3-(5-(2-hydroxy-2-methylpropoxy)-6-methylpyrazin-2-yl)-1H-indole-7-carbonitrile], the “XRPD after competitive equilibration” value ([2]; 1,4-Dioxane, 25° C. for 4 days) was “Form D”, the “XRPD after competitive equilibration” value ([2]; 1,4-Dioxane, 50° C. for 4 days) was “Form D” and the “XRPD after competitive equilibration” value ([2]; 1,4-Dioxane, 70° C. for 4 days) was “Form D”. For the same compound, the “XRPD after competitive equilibration” value ([2]; 2-MeTHF, 25° C. for 4 days) was “Form P”, the “XRPD after competitive equilibration” value ([2]; 2-MeTHF, 50° C. for 4 days) was “Form P” and the “XRPD after competitive equilibration” value ([2]; 2-MeTHF, 70° C. for 4 days) was “Form P”. The “XRPD after competitive equilibration” value ([2]; Acetone, 25° C. for 4 days) was “Form P”, the “XRPD after competitive equilibration” value ([2]; Acetone, 50° C. for 4 days) was “Form P” and the “XRPD after competitive equilibration” value ([2]; Acetone, 70° C. for 4 days) was “Form P”. The “XRPD after competitive equilibration” value ([2]; Acetone/water (v:v = 36:64) a.w = 0.9, 25° C. for 4 days) was “Form P”, the “XRPD after competitive equilibration” value ([2]; Acetone/water (v:v = 36:64) a.w = 0.9, 50° C. for 4 days) was “Form P” and the “XRPD after competitive equilibration” value ([2]; Acetone/water (v:v = 36:64) a.w = 0.9, 70° C. for 4 days) was “Form P”. The “XRPD after competitive equilibration” value ([2]; Acetone/water (v:v = 76.5:23.5) a.w = 0.7, 25° C. for 4 days) was “Form P”, the “XRPD after competitive equilibration” value ([2]; Acetone/water (v:v = 76.5:23.5) a.w = 0.7, 50° C. for 4 days) was “Form P” and the “XRPD after competitive equilibration” value ([2]; Acetone/water (v:v = 76.5:23.5) a.w = 0.7, 70° C. for 4 days) was “Form P”. For the same compound, the “XRPD after competitive equilibration” value ([2]; Acetone/water (v:v = 95.2:4.8) a.w = 0.4, 25° C. for 4 days) was “Form P”, the “XRPD after competitive equilibration” value ([2]; Acetone/water (v:v = 95.2:4.8) a.w = 0.4, 50° C. for 4 days) was “Form P” and the “XRPD after competitive equilibration” value ([2]; Acetone/water (v:v = 95.2:4.8) a.w = 0.4, 70° C. for 4 days) was “Form P”. The “XRPD after competitive equilibration” value ([2]; Acetonitrile, 25° C. for 4 days) was “Form P”, the “XRPD after competitive equilibration” value ([2]; Acetonitrile, 50° C. for 4 days) was “Form P” and the “XRPD after competitive equilibration” value ([2]; Acetonitrile, 70° C. for 4 days) was “Form P”. The “XRPD after competitive equilibration” value ([2]; DCM, 25° C. for 4 days) was “Form P”, the “XRPD after competitive equilibration” value ([2]; DMSO/water (v:v = 1:5 a.w. = 0.94), 80° C. for about 6 d) was “Form P” and the “XRPD after competitive equilibration” value ([2]; DMSO/water (v:v = 1:5 a.w. = 0.94), 90° C. for about 8 d) was “Form C (majority) +”. The “XRPD after competitive equilibration” value ([2]; DMSO/water (v:v = 1:5 a.w. = 0.94), 90° C. for about 18 d) was “Form C”, the “XRPD after competitive equilibration” value ([2]; Ethanol, 25° C. for 4 days) was “Form P” and the “XRPD after competitive equilibration” value ([2]; Ethanol, 50° C. for 4 days) was “Form P”. The “XRPD after competitive equilibration” value ([2]; Ethanol, 70° C. for 4 days) was “Form P”, the “XRPD after competitive equilibration” value ([2]; Ethyl acetate, 25° C. for 4 days) was “Form P” and the “XRPD after competitive equilibration” value ([2]; Ethyl acetate, 50° C. for 4 days) was “Form P”. For the same compound, the “XRPD after competitive equilibration” value ([2]; Ethyl acetate, 70° C. for 4 days) was “Form P”, the “XRPD after competitive equilibration” value ([2]; Heptane, 25° C. for 4 days) was “Form P” and the “XRPD after competitive equilibration” value ([2]; Heptane, 50° C. for 4 days) was “Form P”. For the same compound, the “XRPD after competitive equilibration” value ([2]; Heptane, 70° C. for 4 days) was “Form P”, the “XRPD after competitive equilibration” value ([2]; Heptane, 90° C. for about 8 d) was “Form C + Form P” and the “XRPD after competitive equilibration” value ([2]; Heptane, 90° C. for about 18 d) was “Form C + Form P”. The “XRPD after competitive equilibration” value ([2]; Isopropyl acetate, 25° C. for 4 days) was “Form P”, the “XRPD after competitive equilibration” value ([2]; Isopropyl acetate, 50° C. for 4 days) was “Form P” and the “XRPD after competitive equilibration” value ([2]; Isopropyl acetate, 70° C. for 4 days) was “Form P”. The “XRPD after competitive equilibration” value ([2]; MEK, 25° C. for 4 days) was “Form P”, the “XRPD after competitive equilibration” value ([2]; MEK, 50° C. for 4 days) was “Form P” and the “XRPD after competitive equilibration” value ([2]; MEK, 70° C. for 4 days) was “Form P”. The “XRPD after competitive equilibration” value ([2]; NMP, 25° C. for 4 days) was “Form Q, NMP”, the “XRPD after competitive equilibration” value ([2]; THF, 25° C. for 4 days) was “Form P” and the “XRPD after competitive equilibration” value ([2]; THF, 50° C. for 4 days) was “Form P”. The “XRPD after competitive equilibration” value ([2]; Toluene, 90° C. for about 8 d) was “Form C”, the “XRPD after competitive equilibration” value ([2]; Water, 25° C. for 4 days) was “Form P” and the “XRPD after competitive equilibration” value ([2]; Water, 50° C. for 4 days) was “Form P”. For the same compound, the “XRPD after competitive equilibration” value ([2]; Water, 70° C. for 4 days) was “Form P”, the “XRPD after competitive equilibration” value ([2]; Water, 90° C. for about 8 d) was “Form C + Form P” and the “XRPD after competitive equilibration” value ([2]; Water, 90° C. for about 18 d) was “Form P”.

For `Cc1nc(-c2c[nH]c3c(C#N)cccc23)cnc1OCC(C)(C)O` [Form I, 3-(5-(2-hydroxy-2-methylpropoxy)-6-methylpyrazin-2-yl)-1H-indole-7-carbonitrile], the Form after heating ([1]; heating to 140° C. by TGA and cooled to room temperature) was “converted to physical mixture of Form C, Form N and an unknown peak”.

For `Cc1nc(-c2c[nH]c3c(C#N)cccc23)cnc1OCC(C)(C)O` [Form R, 3-(5-(2-hydroxy-2-methylpropoxy)-6-methylpyrazin-2-yl)-1H-indole-7-carbonitrile], the “Form conversion (relative stability)” value ([2]; at both 25° C. and 70° C.) was “converts to Form P”.

In the case of `Cc1nc(-c2c[nH]c3c(C#N)cccc23)cnc1OCC(C)(C)O` [Form A, 3-(5-(2-hydroxy-2-methylpropoxy)-6-methylpyrazin-2-yl)-1H-indole-7-carbonitrile], the “Form conversion (relative stability)” value ([2]; at both 25° C. and 50° C.) is reported as “converts to Form C”.

For `Cc1nc(-c2c[nH]c3c(C#N)cccc23)cnc1OCC(C)(C)O` [Form M, 3-(5-(2-hydroxy-2-methylpropoxy)-6-methylpyrazin-2-yl)-1H-indole-7-carbonitrile], the Form after equilibration ([3]; MeOH at 25° C. for another 1 day) was “converts to Form B”.

With `Cc1nc(-c2c[nH]c3c(C#N)cccc23)cnc1OCC(C)(C)O` [Form B, 3-(5-(2-hydroxy-2-methylpropoxy)-6-methylpyrazin-2-yl)-1H-indole-7-carbonitrile] the “Relative stability in water activity experiments” value [4] was “converts to anhydrate Form C”, the Form after heating ([5]; heating to 150° C.) was “Form X” and the Form after heating ([5]; heating to 176° C.) was “Form Y”. For the same compound, the Form after heating ([5]; heating to 180° C.) was “Form C” and the Form after dehydration [1] was “converts to Form K”.

For `Cc1nc(-c2c[nH]c3c(C#N)cccc23)cnc1OCC(C)(C)O` [Form Q, 3-(5-(2-hydroxy-2-methylpropoxy)-6-methylpyrazin-2-yl)-1H-indole-7-carbonitrile], the Form after desolvation ([1]; desolvation by heating to 150° C.) was “converted to a physical mixture of Form C (majority) and Form Q”.

For `Cc1nc(-c2c[nH]c3c(C#N)cccc23)cnc1OCC(C)(C)O` [Form G, 3-(5-(2-hydroxy-2-methylpropoxy)-6-methylpyrazin-2-yl)-1H-indole-7-carbonitrile], the Form after equilibration ([3]; DMSO/water system at 25° C. for 6 days) was “converts to anhydrate Form H”.

In the case of `Cc1nc(-c2c[nH]c3c(C#N)cccc23)cnc1OCC(C)(C)O` [Form U, 3-(5-(2-hydroxy-2-methylpropoxy)-6-methylpyrazin-2-yl)-1H-indole-7-carbonitrile], the Form after desolvation [1] is reported as “converted to Form C”.

For `Cc1nc(-c2c[nH]c3c(C#N)cccc23)cnc1OCC(C)(C)O` [Form X, 3-(5-(2-hydroxy-2-methylpropoxy)-6-methylpyrazin-2-yl)-1H-indole-7-carbonitrile], the “Form conversion (relative stability)” value ([2]; at 25° C., 50° C. and 70° C.) was “converts to Form P”.

For `Cc1nc(-c2c[nH]c3c(C#N)cccc23)cnc1OCC(C)(C)O` [Form P + Form X + Form Y, 3-(5-(2-hydroxy-2-methylpropoxy)-6-methylpyrazin-2-yl)-1H-indole-7-carbonitrile], the “XRPD after competitive equilibration” value ([2]; 2-MeTHF, 25° C. for about 3 days) was “Form P”, the “XRPD after competitive equilibration” value ([2]; 2-MeTHF, 50° C. for about 3 days) was “Form P” and the “XRPD after competitive equilibration” value ([2]; 2-MeTHF, 70° C. for about 3 days) was “Form P”.

For `Cc1nc(-c2c[nH]c3c(C#N)cccc23)cnc1OCC(C)(C)O` [Form N, 3-(5-(2-hydroxy-2-methylpropoxy)-6-methylpyrazin-2-yl)-1H-indole-7-carbonitrile], the “Relative stability in water activity experiments” value [4] was “converts to Form C”.

With `Cc1nc(-c2c[nH]c3c(C#N)cccc23)cnc1OCC(C)(C)O` [Form D, 3-(5-(2-hydroxy-2-methylpropoxy)-6-methylpyrazin-2-yl)-1H-indole-7-carbonitrile] the Form after desolvation [1] was “converts to Form C”.

In the case of `Cc1nc(-c2c[nH]c3c(C#N)cccc23)cnc1OCC(C)(C)O` [Form S, 3-(5-(2-hydroxy-2-methylpropoxy)-6-methylpyrazin-2-yl)-1H-indole-7-carbonitrile], the “Relative stability in water activity experiments” value [4] is reported as “converted to anhydrate Form P”.
